Where two headings read alike, the source gives them in different places.

In the test the test system is C. elegans. The test is described as follows: microbe, parasite or virus in culture. The settings on record: Caenorhabditis elegans.
Where [1] appears, read: 0 h, read-out: Percentage of motility inhibition 0 h, Table S2, C. elegans SS assay, 110 μM, 0 h, averages of 4 data points.
The mark [2] stands for this setting: 24 h, read-out: Percentage of motility inhibition 24 h, Table S2, C. elegans SS assay, 110 μM, 24 h, averages of 4 data points.
The mark [3] stands for this setting: 0 h, read-out: Percentage of motility inhibition 0 h.
[4] abbreviates: 24 h, read-out: Percentage of motility inhibition 24 h.

On to `COc1ccc2c(c1OC)CC1c3c(cc4c(c3-2)OCO4)CCN1C` (stereo not shown) [Crebanine], for which the inhibition at 110 µM under setting [1] stood at 0% and the inhibition at 110 µM under setting [2] was found to be 4%.

For `CC(C)(O)/C=C/C(=O)[C@](C)(O)[C@H]1[C@H](O)C[C@@]2(C)[C@@H]3CC=C4[C@@H](C[C@H](O)C(=O)C4(C)C)[C@]3(C)C(=O)C[C@]12C` [Cucurbitacin D], the inhibition at 110 µM stood at 10% under setting [1] and 22% under setting [2].

For `CC(=O)OC(C)(C)/C=C/C(=O)[C@](C)(O)[C@H]1[C@H](O)C[C@@]2(C)[C@@H]3CC=C4[C@@H](C=C(O)C(=O)C4(C)C)[C@]3(C)C(=O)C[C@]12C` [Cucurbitacin E], the inhibition at 110 µM stood at 0% under setting [1] and 11% under setting [2].

`CC(C)(O)/C=C/C(=O)[C@](C)(O)[C@H]1[C@H](O)C[C@@]2(C)[C@@H]3CC=C4[C@@H](C=C(O)C(=O)C4(C)C)[C@]3(C)C(=O)C[C@]12C` [Cucurbitacin I]: the inhibition at 110 µM stood at 0% under setting [1] and 23% under setting [2].

As for `CC1=C[C@]2(O)O[C@@]3(CC2=C(C)C)[C@@H](C)CC[C@@H]13` [Curcumenol], the inhibition at 110 µM came to 0% under setting [1] and 38% under setting [2].

With `C=CC1(C)Cc2occ(C)c2C(=O)C1C(=C)C` (stereo not shown) [Curzerenone], the inhibition at 110 µM under setting [1] was 10% and the inhibition at 110 µM under setting [2] stood at 9%.

Consider `COc1cc(/C=C/C(=O)O[C@H]2CC[C@]34C[C@]35CC[C@]3(C)[C@@H]([C@H](C)CCC=C(C)C)CC[C@@]3(C)[C@@H]5CC[C@H]4C2(C)C)ccc1O` [Cycloartenyl ferulate], for which the inhibition at 110 µM runs as follows: under setting [1], 35%; under setting [2], 21%.

On to `C[C@@H]1C[C@@H]([C@H](O)CC2CC(=O)NC(=O)C2)C(=O)[C@@H](C)C1` [Cycloheximide], for which the inhibition at 110 µM runs as follows: under setting [1], 17%; under setting [2], 0%.

Consider `CC1=C2C[C@H]3[C@@H](CC=C4C[C@@H](O)CC[C@@]43C)[C@@H]2CC[C@]12O[C@@H]1C[C@H](C)CN[C@H]1[C@H]2C` [Cyclopamine], for which the inhibition at 110 µM by setting is: under setting [3], 0%; under setting [4], 14%.

`CC(=O)C1=C(O)[C@@H]2[C@H]3c4c[nH]c5cccc(c45)C[C@H]3C(C)(C)N2C1=O` [Cyclopiazonic acid]: the inhibition at 110 µM under setting [1] is 6% and the inhibition at 110 µM under setting [2] is 2%.

In the case of `CC(C1CC1)C(O)(Cn1cncn1)c1ccc(Cl)cc1` (stereo not shown) [Cyproconazole], the inhibition at 110 µM was determined as 42% under setting [1] and 0% under setting [2].

Regarding `Nc1ccn([C@@H]2O[C@H](CO)[C@@H](O)[C@H]2O)c(=O)n1` [Cytidine], the inhibition at 110 µM was found to be 12% under setting [1] and 5% under setting [2].

Consider `OC[C@@H](O)[C@@H](O)[C@H](O)[C@H](O)CO` [D-Mannitol], for which the inhibition at 110 µM is 11% under setting [1] and 0% under setting [2].

As to `CC(C)(CO)[C@@H](O)C(=O)NCCC(=O)O` [D-Pantothenic acid], the inhibition at 110 µM stood at 9% under setting [1] and 10% under setting [2].

As for `OC[C@@H](O)[C@@H](O)[C@H](O)[C@@H](O)CO` [D-Sorbitol], the inhibition at 110 µM runs as follows: under setting [1], 0%; under setting [2], 7%.

Turning to `COC(=O)N[C@H](C(=O)N1CCC[C@H]1c1nc(-c2ccc(-c3ccc(-c4c[nH]c([C@@H]5CCCN5C(=O)[C@@H](NC(=O)OC)C(C)C)n4)cc3)cc2)c[nH]1)C(C)C` [Daclatasvir], the inhibition at 110 µM by setting is: under setting [1], 44%; under setting [2], 43%.

Regarding `C=C(CCC=C(C)C)[C@H]1CC[C@]2(C)[C@@H]1[C@H](O)C[C@@H]1[C@@]3(C)C[C@@H](O)[C@H](O[C@@H]4O[C@H](CO)[C@@H](O)[C@H](O)[C@H]4O[C@@H]4O[C@H](CO)[C@@H](O)[C@H](O)[C@H]4O)C(C)(C)[C@@H]3CC[C@]12C` [Damulin B], the inhibition at 110 µM was 9% under setting [1] and 16% under setting [2].

For the compound `CC(C)(C)OC(=O)N[C@H]1CCCCC/C=C\[C@@H]2C[C@@]2(C(=O)NS(=O)(=O)C2CC2)NC(=O)[C@@H]2C[C@@H](OC(=O)N3Cc4cccc(F)c4C3)CN2C1=O` [Danoprevir], the inhibition at 110 µM stood at 60% under setting [1] and 24% under setting [2].

`O=C1c2cccc(O)c2C(=O)c2c(O)cccc21` [Danthron]: the inhibition at 110 µM reads like this: under setting [1], 21%; under setting [2], 9%.

For the compound `O=c1ccc2ccc(O)c(O)c2o1` [Daphnetin], the inhibition at 110 µM under setting [1] worked out at 0% and the inhibition at 110 µM under setting [2] came out at 1%.

Take `Cc1cc(C)c(Nc2ccnc(Nc3ccc(C#N)cc3)n2)c(C)c1` [Dapivirine]: the inhibition at 110 µM is, setting by setting: under setting [1], 44%; under setting [2], 4%.

Consider `Nc1ccc(S(=O)(=O)c2ccc(N)cc2)cc1` [Dapsone], for which the inhibition at 110 µM reads like this: under setting [1], 42%; under setting [2], 24%.

Consider `CCCCCCCCCC(=O)N[C@@H](Cc1c[nH]c2ccccc12)C(=O)N[C@H](CC(N)=O)C(=O)N[C@@H](CC(=O)O)C(=O)N[C@@H]1C(=O)NCC(=O)N[C@@H](CCCN)C(=O)N[C@@H](CC(=O)O)C(=O)N[C@H](C)C(=O)N[C@@H](CC(=O)O)C(=O)NCC(=O)N[C@H](CO)C(=O)N[C@@H]([C@H](C)CC(=O)O)C(=O)N[C@@H](CC(=O)c2ccccc2N)C(=O)O[C@@H]1C` [Daptomycin], for which the inhibition at 110 µM by setting is: under setting [1], 3%; under setting [2], 8%.

Turning to `CC(C)CN(C[C@@H](O)[C@H](Cc1ccccc1)NC(=O)O[C@H]1CO[C@H]2OCC[C@H]21)S(=O)(=O)c1ccc(N)cc1` [Darunavir], the inhibition at 110 µM under setting [3] was determined as 39% and the inhibition at 110 µM under setting [4] stood at 26%.

On to `CC1(C)[C@H](O)CC[C@@]2(C)[C@@H]3CC[C@](C)([C@@H](O)CO[C@@H]4O[C@H](CO)[C@@H](O)[C@H](O)[C@H]4O)C=C3CC[C@H]12` [Darutoside], for which the inhibition at 110 µM stood at 2% under setting [1] and 9% under setting [2].

For `COc1cc2c(cc1OC)[C@@H](Cc1ccc(Oc3cc(C[C@@H]4c5cc(OC)c(OC)cc5CCN4C)ccc3O)cc1)N(C)CC2` [Dauricine], the inhibition at 110 µM reads like this: under setting [3], 2%; under setting [4], 9%.

Consider `CCCCCCCCCCOc1cc2c(O)c(C(=O)OCC)cnc2cc1OCC` [Decoquinate], for which the inhibition at 110 µM worked out at 13% under setting [1] and 1% under setting [2].

For the compound `COc1cc2c(cc1OC)[C@@H]1C(=O)c3ccc4c(c3O[C@@H]1CO2)C=CC(C)(C)O4` [Deguelin], the inhibition at 110 µM reads like this: under setting [1], 0%; under setting [2], 0%.

For the compound `CC(C)c1ccc2c(c1)CC[C@H]1[C@](C)(C(=O)O)CCC[C@]21C` [Dehydroabietic acid], the inhibition at 110 µM reads like this: under setting [1], 4%; under setting [2], 17%.

With `CC(=O)C1C(=O)C=C(C)OC1=O` (stereo not shown) [Dehydroacetic acid], the inhibition at 110 µM under setting [1] stood at 45% and the inhibition at 110 µM under setting [2] amounted to 17%.

With `COc1cc2c(cc1OC)-c1c(C)c3ccc(OC)c(OC)c3c[n+]1CC2` [Dehydrocorydaline], the inhibition at 110 µM came out at 4% under setting [1] and 0% under setting [2].

As for `C=C1CC[C@H]2C(=C)CC[C@H]3C(=C)C(=O)O[C@@H]3[C@@H]12` [Dehydrocostus Lactone], the inhibition at 110 µM under setting [1] amounted to 0% and the inhibition at 110 µM under setting [2] is 24%.

Consider `COc1cc2c3c(cc4ccccc4c3c1OC)N(C)CC2` [Dehydronuciferine], for which the inhibition at 110 µM by setting is: under setting [1], 6%; under setting [2], 6%.

For the compound `C=C(CC[C@@H](C(=O)O)[C@H]1[C@H](O)C[C@@]2(C)C3=CC[C@H]4C(C)(C)[C@@H](O)CC[C@]4(C)C3=CC[C@]12C)C(C)C` [Dehydrotumulosic acid], the inhibition at 110 µM is, setting by setting: under setting [1], 11%; under setting [2], 21%.

For `C[C@]1(COc2ccc(N3CCC(Oc4ccc(OC(F)(F)F)cc4)CC3)cc2)Cn2cc([N+](=O)[O-])nc2O1` [Delamanid], the inhibition at 110 µM by setting is: under setting [1], 42%; under setting [2], 21%.

As for `CCN1C[C@]2(COC)CC[C@H](O)[C@]34C1[C@@](O)([C@@H](OC)[C@H]23)[C@@]1(O)C[C@H](OC)[C@H]2C[C@@H]4[C@@H]1[C@H]2OC` [Delsoline], the inhibition at 110 µM under setting [1] turned out to be 5% and the inhibition at 110 µM under setting [2] came to 0%.

On to `CCN1C[C@]2(C)CC[C@H](OC)[C@@]34C1[C@]1(OCO[C@@]15C[C@H](OC)[C@H]1C[C@]3(O)[C@@H]5[C@H]1OC)[C@@H](OC(C)=O)[C@H]24` [Deltaline], for which the inhibition at 110 µM is, setting by setting: under setting [1], 0%; under setting [2], 0%.

For the compound `C[C@H](CCC(=O)O)[C@H]1CC[C@H]2[C@@H]3CC[C@@H]4C[C@H](O)CC[C@]4(C)[C@H]3C[C@H](O)[C@]12C` [Deoxycholic acid], the inhibition at 110 µM runs as follows: under setting [1], 29%; under setting [2], 12%.

In the case of `C[C@H]1O[C@@H](O[C@H]2CC[C@@]3(C)[C@H](CC[C@@H]4[C@@H]3C[C@@H](O)[C@]3(C)[C@@H](C5=CC(=O)OC5)CC[C@]43O)C2)C[C@H](O)[C@@H]1O[C@H]1C[C@H](O)[C@H](O[C@H]2C[C@H](O)[C@H](O[C@@H]3O[C@H](CO)[C@@H](O)[C@H](O)[C@H]3O)[C@@H](C)O2)[C@@H](C)O1` [Deslanoside], the inhibition at 110 µM came out at 5% under setting [1] and 5% under setting [2].

On to `CC(=O)Oc1cccc2c1C(=O)c1c(OC(C)=O)cc(C(=O)O)cc1C2=O` [Diacerein], for which the inhibition at 110 µM under setting [1] was 0% and the inhibition at 110 µM under setting [2] is 8%.

Take `COc1ccc(Cc2cnc(N)nc2N)cc1OC` [Diaveridine]: the inhibition at 110 µM by setting is: under setting [1], 17%; under setting [2], 32%.

Turning to `Oc1ccc(Cl)cc1Cc1cc(Cl)ccc1O` [Dichlorophen], the inhibition at 110 µM is 15% under setting [1] and 0% under setting [2].

On to `N#CC(c1ccc(Cl)cc1)c1c(Cl)cc(-n2ncc(=O)[nH]c2=O)cc1Cl` (stereo not shown) [Diclazuril], for which the inhibition at 110 µM under setting [1] is 28% and the inhibition at 110 µM under setting [2] stood at 44%.

In the case of `O=c1[nH]cnc2c1ncn2[C@H]1CC[C@@H](CO)O1` [Didanosine], the inhibition at 110 µM stood at 22% under setting [1] and 7% under setting [2].

Values taken from article PMC11855827, “High-Throughput Screening of Five Compound Libraries for Anthelmintic Activity and Toxicity Leads to the Discovery of Two Flavonoid Compounds” (International Journal of Molecular Sciences, 2025).
